Results published in PMC9792776 (Frontiers in Pharmacology, 2022).
Read-outs that look alike come from different tables or passages of the source.

Assays:
CYP2C9 = CYP2C9 (Homo sapiens, UniProt P11712); test: Intrinsic clearance in human recombinant CYP2C9
OATP1B1 = target: T1, OATP1B1 (Homo sapiens, UniProt Q9Y6L6); test: Transporter substrate/inhibitor assessment, OATP1B1; format: in vitro ADME
T1 sequence (Q9Y6L6 1-691): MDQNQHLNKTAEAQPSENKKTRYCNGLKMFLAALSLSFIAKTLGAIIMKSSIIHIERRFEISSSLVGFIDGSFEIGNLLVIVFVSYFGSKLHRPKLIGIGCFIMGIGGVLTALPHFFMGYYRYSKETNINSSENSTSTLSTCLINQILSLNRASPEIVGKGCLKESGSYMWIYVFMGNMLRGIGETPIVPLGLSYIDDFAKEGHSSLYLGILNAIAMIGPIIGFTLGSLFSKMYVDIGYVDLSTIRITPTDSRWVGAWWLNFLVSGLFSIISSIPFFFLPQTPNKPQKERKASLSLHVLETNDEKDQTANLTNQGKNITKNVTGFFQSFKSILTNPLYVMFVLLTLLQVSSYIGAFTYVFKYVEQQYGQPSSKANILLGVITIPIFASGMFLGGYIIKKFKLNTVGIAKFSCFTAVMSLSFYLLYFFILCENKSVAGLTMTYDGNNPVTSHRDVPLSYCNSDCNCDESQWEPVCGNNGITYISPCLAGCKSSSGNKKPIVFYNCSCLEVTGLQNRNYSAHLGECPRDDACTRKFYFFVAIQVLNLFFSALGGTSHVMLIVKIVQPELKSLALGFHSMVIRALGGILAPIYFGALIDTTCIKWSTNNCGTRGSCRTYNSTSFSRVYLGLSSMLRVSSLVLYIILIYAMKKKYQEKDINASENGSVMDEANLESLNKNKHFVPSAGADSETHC

[1] = Log Po:w (octanol-water partition coefficient); format: physicochemical
From the text: TABLE 1 Model development and model parameters. | column: Value

in vitro = details: human
CYP3A4 [2] = target: T2, CYP3A4 (Homo sapiens, UniProt P08684); test: Intrinsic clearance in human recombinant CYP3A4
T2 sequence (P08684 whole entry): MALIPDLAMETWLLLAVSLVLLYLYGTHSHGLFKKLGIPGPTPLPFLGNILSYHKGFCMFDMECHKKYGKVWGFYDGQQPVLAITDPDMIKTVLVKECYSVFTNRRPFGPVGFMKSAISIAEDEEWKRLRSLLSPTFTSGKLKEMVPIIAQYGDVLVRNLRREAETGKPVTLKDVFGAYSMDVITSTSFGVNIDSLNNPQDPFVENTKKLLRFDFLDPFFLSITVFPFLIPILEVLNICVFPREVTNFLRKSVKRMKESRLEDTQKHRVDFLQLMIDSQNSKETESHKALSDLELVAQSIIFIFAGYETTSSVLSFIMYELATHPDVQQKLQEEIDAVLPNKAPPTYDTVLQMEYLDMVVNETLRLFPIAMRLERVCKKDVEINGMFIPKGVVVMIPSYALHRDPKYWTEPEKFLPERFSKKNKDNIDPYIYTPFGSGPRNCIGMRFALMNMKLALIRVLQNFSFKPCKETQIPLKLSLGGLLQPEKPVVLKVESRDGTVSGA

CYP3A4 [3] = target: T2, CYP3A4; test: Clinical DDI study with itraconazole and rifampicin in healthy American (White) subjects; details: for Cmax: plasma, oral, Cmax Obs.
Procedure: After a 3-day washout period, they were pretreated with 200 mg of oral itraconazole once daily for 4 days to inhibit CYP3A4 (Days 5–8). […] After a 3-day washout, subjects were pretreated with 600 mg of oral rifampicin once daily for 7 days to induce CYP3A4 (Days 5–11). […] Blood samples were collected immediately before and after drug administration at 0.5, 1, 2, 4, 6, 8, 12, 24, 48, 72, and 96 h.

CYP3A4 [4] = target: T2, CYP3A4; details: recombinant enzyme
OAT3 = target: T3, OAT3 (Homo sapiens, UniProt Q8TCC7); test: Transporter substrate/inhibitor assessment, OAT3; format: in vitro ADME
T3 sequence (Q8TCC7 1-542): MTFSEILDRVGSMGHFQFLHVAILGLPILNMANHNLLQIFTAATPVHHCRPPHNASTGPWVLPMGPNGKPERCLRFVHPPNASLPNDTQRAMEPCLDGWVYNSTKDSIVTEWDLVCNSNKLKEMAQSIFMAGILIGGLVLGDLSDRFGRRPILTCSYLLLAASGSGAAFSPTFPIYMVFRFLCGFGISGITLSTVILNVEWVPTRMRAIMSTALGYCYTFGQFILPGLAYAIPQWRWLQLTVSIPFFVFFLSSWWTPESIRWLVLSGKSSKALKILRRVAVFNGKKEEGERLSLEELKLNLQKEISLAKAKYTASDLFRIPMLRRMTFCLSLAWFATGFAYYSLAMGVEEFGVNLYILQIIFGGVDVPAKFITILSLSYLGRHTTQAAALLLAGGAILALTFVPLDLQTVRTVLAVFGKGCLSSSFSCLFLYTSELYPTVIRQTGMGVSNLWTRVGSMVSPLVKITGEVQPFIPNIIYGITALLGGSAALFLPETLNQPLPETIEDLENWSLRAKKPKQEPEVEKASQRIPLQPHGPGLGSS

OAT1 = target: T4, OAT1 (Homo sapiens, UniProt Q4U2R8); test: Transporter substrate/inhibitor assessment, OAT1; format: in vitro ADME
T4 sequence (Q4U2R8 1-563): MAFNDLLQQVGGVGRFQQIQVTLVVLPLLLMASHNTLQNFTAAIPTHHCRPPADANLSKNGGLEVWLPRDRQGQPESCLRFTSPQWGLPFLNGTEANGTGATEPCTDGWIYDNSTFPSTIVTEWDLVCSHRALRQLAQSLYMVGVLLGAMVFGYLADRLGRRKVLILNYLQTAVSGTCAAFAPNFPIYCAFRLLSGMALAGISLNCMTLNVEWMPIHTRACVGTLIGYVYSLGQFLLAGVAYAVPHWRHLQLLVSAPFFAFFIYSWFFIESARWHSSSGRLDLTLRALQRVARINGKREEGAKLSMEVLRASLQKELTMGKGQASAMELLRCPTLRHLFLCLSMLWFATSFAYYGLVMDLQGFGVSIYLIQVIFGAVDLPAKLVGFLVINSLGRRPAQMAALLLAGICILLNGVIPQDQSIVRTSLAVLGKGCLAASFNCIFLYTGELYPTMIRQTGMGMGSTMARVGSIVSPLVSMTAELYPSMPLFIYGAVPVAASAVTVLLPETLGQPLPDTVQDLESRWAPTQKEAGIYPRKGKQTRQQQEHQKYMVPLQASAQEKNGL

[5] = Human mass balance study with [14C]olverembatinib (NCT04126707); format: in vivo
[6] = Food effect clinical study in Chinese patients with CML (NCT03882281); format: in vivo, human
From the text: In the first study, on food effects, 12 Chinese patients with CML were randomly divided into two groups (A and B) and the experiments divided into two periods. […] After a seven- day washout period, subjects in both groups took the drug interchangeably in period 2 (NCT03882281).

[7] = single radiolabeled 30 mg dose, healthy subjects
[8] = Chinese CML patients, fed, 30 mg SD

CYP2C9, sequence (P11712 whole entry): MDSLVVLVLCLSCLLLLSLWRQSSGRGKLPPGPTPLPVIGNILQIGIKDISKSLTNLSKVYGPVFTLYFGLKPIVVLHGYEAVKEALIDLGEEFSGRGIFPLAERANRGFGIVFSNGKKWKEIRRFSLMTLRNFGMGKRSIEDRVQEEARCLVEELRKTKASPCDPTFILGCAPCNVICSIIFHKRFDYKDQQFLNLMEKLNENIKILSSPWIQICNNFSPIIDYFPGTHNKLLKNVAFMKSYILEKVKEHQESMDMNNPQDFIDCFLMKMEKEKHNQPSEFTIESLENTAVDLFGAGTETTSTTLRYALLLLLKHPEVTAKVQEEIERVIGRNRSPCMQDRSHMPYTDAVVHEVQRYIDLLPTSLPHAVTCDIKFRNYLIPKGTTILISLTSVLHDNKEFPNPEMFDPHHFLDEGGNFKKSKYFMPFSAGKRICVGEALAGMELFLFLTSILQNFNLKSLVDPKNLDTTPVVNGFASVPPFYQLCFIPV

Cc1ccc(C(=O)Nc2ccc(CN3CCN(C)CC3)c(C(F)(F)F)c2)cc1C#Cc1cnc2[nH]ncc2c1 [olverembatinib, Olverembatinib]
CLint CYP2C9 (CYP2C9): 0.022 µL/min/pmol CYP
substrate or inhibitor of OATP1B1 (OATP1B1): neither a substrate nor inhibitor
Log Po:w [1]: 3.6
microsomal CLint (in vitro): 5.26 µL/min/mg
CLint CYP3A4 (CYP3A4 [2]): 0.200 µL/min/pmol CYP
AUC Obs. (CYP3A4 [3]; White healthy volunteers, fed, 20 mg SD, olverembatinib alone): 125 h?ng/mL
AUC Obs. (CYP3A4 [3]; White healthy volunteers, fed, 40 mg SD, olverembatinib alone): 302 h?ng/mL
AUC Obs. (CYP3A4 [3]; coadministration with itraconazole, healthy White volunteers): 330 h?ng/mL
AUC Obs. (CYP3A4 [3]; coadministration with rifampicin, healthy White volunteers): 73.0 h?ng/mL
AUC decrease after rifampicin administration (CYP3A4 [3]; human, in vivo): 76%
AUC increase after itraconazole treatment (CYP3A4 [3]; human, in vivo, 200 mg): 163%
Cmax (CYP3A4 [3]; human, 20 mg, White healthy volunteers, fed, 20 mg SD, olverembatinib alone): 5.26 ng/mL
Cmax (CYP3A4 [3]; human, 40 mg, White healthy volunteers, fed, 40 mg SD, olverembatinib alone): 12.7 ng/mL
Cmax (CYP3A4 [3]; human, coadministration with itraconazole, healthy White volunteers): 9.14 ng/mL
Cmax (CYP3A4 [3]; human, coadministration with rifampicin, healthy White volunteers): 4.54 ng/mL
CLint CYP3A4 (CYP3A4 [4]): 0.2 µL/min/pmol CYP
substrate or inhibitor of OAT3 (OAT3): neither a substrate nor inhibitor
substrate or inhibitor of OAT1 (OAT1): neither a substrate nor inhibitor
AUC Obs. ([5]; Chinese healthy volunteers, fasting, 26.85 mg SD): 153 h?ng/mL
Cmax ([5]; male, human, plasma, oral, Chinese healthy volunteers, fasting, 26.85 mg SD): 8.09 ng/mL
Tmax ([5]; male, human, plasma, oral, Chinese healthy volunteers, fasting, 26.85 mg SD, read-out: Tmax Obs. (median)): 6 h
cleared drug unchanged in feces [5, 7]: About 23.95%
eliminated as the parent drug in urine [5, 7]: 0.02%
dose recovered in urine ([5]; single radiolabeled 30 mg dose, healthy subjects, within 96 h): 1.57%
dose recovered in feces ([5]; single radiolabeled 30 mg dose, healthy subjects, within 216 h): 87.68%
AUC Obs. ([6]; Chinese CML patients, fasting, 30 mg SD): 237 h?ng/mL
AUC Obs. [6, 8]: 276 h?ng/mL
Tmax Obs. (median) [6, 8]: 6.00 h
half-life ([6]; human, plasma, 30 mg, oral, patients with CML, data on file, read-out: mean apparent terminal elimination half-life (t1/2) (converted)): 32.7 h
Tmax ([6]; human, plasma, 30 mg, oral, patients with CML, data on file, read-out: median time to reach peak plasma concentration (Tmax)): 6 h
Cmax ([6]; human, plasma, oral, 30 mg, Chinese CML patients, fasting, 30 mg SD): 8.72 ng/mL
Cmax ([6]; human, plasma, oral, 30 mg, Chinese CML patients, fed, 30 mg SD): 10.8 ng/mL
Tmax ([6]; human, plasma, oral, Chinese CML patients, fasting, 30 mg SD, read-out: Tmax Obs. (median)): 6 h
